Measurements from the Kinase Knowledgebase extract (Sharma et al. 2016).
≈ marks a conversion by molar mass, not a printed value.

Target: EGFR (UniProt P00533)
Sequence (P00533 whole entry, looked up): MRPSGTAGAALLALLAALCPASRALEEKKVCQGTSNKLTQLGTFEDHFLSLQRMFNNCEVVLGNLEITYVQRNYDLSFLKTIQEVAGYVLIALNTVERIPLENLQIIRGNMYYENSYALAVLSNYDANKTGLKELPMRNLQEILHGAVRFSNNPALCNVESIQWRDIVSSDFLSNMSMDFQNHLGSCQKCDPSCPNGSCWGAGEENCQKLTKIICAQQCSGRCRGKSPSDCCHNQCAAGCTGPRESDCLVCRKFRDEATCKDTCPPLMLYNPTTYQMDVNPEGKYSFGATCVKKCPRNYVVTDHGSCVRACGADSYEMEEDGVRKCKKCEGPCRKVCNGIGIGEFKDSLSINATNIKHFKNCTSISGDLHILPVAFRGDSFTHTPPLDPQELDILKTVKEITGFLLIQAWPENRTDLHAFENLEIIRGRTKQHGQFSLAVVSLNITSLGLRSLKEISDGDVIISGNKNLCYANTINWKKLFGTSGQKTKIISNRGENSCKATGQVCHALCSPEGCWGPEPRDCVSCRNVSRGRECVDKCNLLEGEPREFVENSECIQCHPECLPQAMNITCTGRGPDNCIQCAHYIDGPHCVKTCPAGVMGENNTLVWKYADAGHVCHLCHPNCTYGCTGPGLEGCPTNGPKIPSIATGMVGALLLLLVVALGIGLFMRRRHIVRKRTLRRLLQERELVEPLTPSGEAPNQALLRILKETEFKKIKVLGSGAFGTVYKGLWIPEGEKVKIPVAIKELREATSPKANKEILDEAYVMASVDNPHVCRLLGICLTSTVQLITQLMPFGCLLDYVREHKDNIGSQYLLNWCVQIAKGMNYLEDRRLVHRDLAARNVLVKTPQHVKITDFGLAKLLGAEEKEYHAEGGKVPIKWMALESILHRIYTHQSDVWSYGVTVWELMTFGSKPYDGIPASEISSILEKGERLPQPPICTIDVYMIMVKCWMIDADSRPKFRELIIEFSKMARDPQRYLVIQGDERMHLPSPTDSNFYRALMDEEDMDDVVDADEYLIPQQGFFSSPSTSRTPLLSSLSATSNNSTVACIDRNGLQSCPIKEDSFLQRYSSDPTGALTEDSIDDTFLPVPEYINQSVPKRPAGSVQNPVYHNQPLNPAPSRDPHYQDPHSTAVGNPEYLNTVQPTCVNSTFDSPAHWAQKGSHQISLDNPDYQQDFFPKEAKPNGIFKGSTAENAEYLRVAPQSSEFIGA

Row | SMILES | IC50 [µg/mL]
1 | COc1cc(Nc2ncnc(N)n2)cc(OC)c1OC | > 4.5
2 | CN1CCN(Cc2cccc(Nc3ncnc(Nc4ccc5c(cnn5Cc5ccccc5)c4)n3)c2)CC1 | > 4.5
3 | FC(F)C(F)(F)Oc1cccc(Nc2ncnc(-c3cccs3)n2)c1 | > 4.5
4 | CCC(Nc1nc2ccccc2n1-c1ncnc(Nc2cc(OC)c(OC)c(OC)c2)n1)c1ccccc1 (stereo not drawn) | 0.4 to 2.4 (≈ 0.782 to 4.69 µM)
5 | COc1cc(Nc2ncnc(-n3c(N(C)C)nc4ccccc43)n2)cc(OC)c1OC | > 4.5
6 | COc1ccc2c(c1)nc(NCc1ccccc1)n2-c1ncnc(Nc2cc(OC)c(OC)c(OC)c2)n1.COc1ccc2nc(NCc3ccccc3)n(-c3ncnc(Nc4cc(OC)c(OC)c(OC)c4)n3)c2c1 | 0.4 to 2.4
7 | CN1CCN(Cc2cccc(Nc3ncnc(Nc4cccc5ccccc45)n3)c2)CC1 | > 4.5
8 | COc1cc(Nc2ncnc(-n3c(NCCc4cccnc4)nc4ccccc43)n2)cc(OC)c1OC | > 4.5
9 | O=c1[nH]c2ccccc2n1-c1ncnc(Nc2ccc3ccccc3c2)n1 | > 4.5
10 | c1csc(-c2ncnc(Nc3ccncc3)n2)c1 | > 4.5
11 | Nc1nc2ccccc2n1-c1ncnc(Nc2ccccc2)n1 | > 4.5
12 | COc1ccc(Nc2ncnc(NCCCN3CCN(C)CC3)n2)cc1OC | > 4.5
13 | CN(C)CCNc1ncnc(Nc2ccc3c(cnn3Cc3ccccc3)c2)n1 | 0.4 to 2.4 (≈ 1.03 to 6.18 µM)
14 | C=CCNC(=O)c1ccc(-c2cc(Nc3ncnc(Nc4cc(OC)c(OC)c(OC)c4)n3)[nH]n2)cc1 | > 4.5
15 | COc1cc(Nc2ncnc(Nc3ccc(C(C)=O)cc3)n2)cc(OC)c1OC | 2.4 to 3.5 (≈ 6.07 to 8.85 µM)
16 | COc1cc(Nc2ncnc(-n3c(Nc4ccccc4C(C)C)nc4ccccc43)n2)cc(OC)c1OC | > 4.5

Row | SMILES | IC50 [µg/mL]
17 | COc1cc(Nc2ncnc(-n3c(N)nc4ccccc43)n2)ccc1OCCN1CCOCC1 | > 4.5
18 | COc1cc(Nc2ncnc(-n3c(NC(C)=O)nc4ccccc43)n2)cc(OC)c1OC | > 4.5
19 | Cc1cccc(Nc2ncnc(Nc3cc(-c4ccccc4)n[nH]3)n2)c1 | < 0.4
20 | COc1ccccc1Nc1ncnc(-n2cccc2)n1 | > 4.5
21 | O=c1[nH]c2ccccc2n1-c1ncnc(Nc2ccccc2[N+](=O)[O-])n1 | > 4.5
22 | COc1ccc(Nc2ncnc(N(C)C3CCN(Cc4ccccc4)C3)n2)cc1OC (stereo not drawn) | > 4.5
23 | COc1cc(Nc2ncnc(N3CCc4ccccc4C3)n2)cc(OC)c1OC | > 4.5
24 | CC(C)(C)c1cc(Nc2ncnc(Nc3cccc(CO)c3)n2)[nH]n1 | 0.4 to 2.4 (≈ 1.18 to 7.07 µM)
25 | COc1cccc(NC(=O)Nc2ncnc(Nc3cc(OC)c(OC)c(OC)c3)n2)c1 | > 4.5
26 | COc1cc(Nc2ncnc(-n3c(Nc4ccc5[nH]ncc5c4)nc4ccccc43)n2)cc(OC)c1OC | 3.5 to 4.5 (≈ 6.87 to 8.83 µM)
27 | COc1cc(C)c(Nc2ncnc(-c3cccs3)n2)cc1OC | > 4.5
28 | NS(=O)(=O)c1ccc(Nc2ncnc(-n3c(=O)[nH]c4ccccc43)n2)cc1 | > 4.5
29 | COCCOc1ccc(Nc2ncnc(-n3c(N)nc4ccccc43)n2)cc1OCCOC | > 4.5
30 | CN(c1cccc(Cl)c1)c1ncnc(Nc2ccccc2)n1 | < 0.4
31 | COc1cc(Nc2ncnc(N3CCCC4CCCCC43)n2)cc(OC)c1OC (stereo not drawn) | < 0.4
32 | COc1cc(Nc2ncnc(Nc3ccc(Cl)c4ccccc34)n2)cc(OC)c1OC | < 0.4

Further lines, results first:

Row | IC50 [µg/mL] | SMILES
33 | > 4.5 | COc1ccc2[nH]cc(CCNc3ncnc(Nc4ccc(OC)c(OC)c4)n3)c2c1
34 | > 4.5 | COc1ccc(Nc2ncnc(-n3c(=O)[nH]c4ccccc43)n2)cn1
35 | > 4.5 | Nc1nc2ccccc2n1-c1ncnc(Nc2ccccn2)n1
36 | > 4.5 | COc1cc(Nc2ncnc(Nc3ccc(C(C)C)cc3)n2)cc(OC)c1OC
37 | 0.4 to 2.4 (≈ 0.892 to 5.35 µM) | CC(C)(C)OC(=O)NCc1cccc(Nc2ncnc(Nc3cc(-c4ccco4)n[nH]3)n2)c1
38 | > 4.5 | O=[N+]([O-])c1cccc(Nc2ncnc(-c3cccs3)n2)c1
39 | 2.4 to 3.5 (≈ 5.89 to 8.59 µM) | COC(=O)c1ccc(-c2cc(Nc3ncnc(NCc4cccs4)n3)[nH]n2)cc1
40 | 2.4 to 3.5 (≈ 5.65 to 8.25 µM) | COC(=O)c1ccc(-c2cc(Nc3ncnc(NCCN4CCOCC4)n3)[nH]n2)cc1
41 | > 4.5 | COc1cc(Nc2ncnc(NN3CCCC3)n2)cc(OC)c1OC
42 | < 0.4 | CN(c1cccc(Cl)c1)c1ncnc(Nc2ccc3c(cnn3C)c2)n1
43 | > 4.5 | COC(=O)c1ccc(-c2cc(Nc3ncnc(NCc4cccnc4)n3)[nH]n2)cc1
44 | 0.4 to 2.4 (≈ 0.817 to 4.9 µM) | COc1cc(Nc2ncnc(-n3c(NCc4cccs4)nc4ccccc43)n2)cc(OC)c1OC
45 | > 4.5 | COc1cc(Nc2ncnc(Nc3cccc4cccnc34)n2)cc(OC)c1OC
46 | > 4.5 | COc1cc(Nc2ncnc(-c3ccnc(NCCCN)c3)n2)cc(OC)c1OC
47 | 0.4 to 2.4 (≈ 0.892 to 5.35 µM) | CC(C)(C)OC(=O)NCc1ccc(Nc2ncnc(Nc3cc(-c4ccco4)n[nH]3)n2)cc1
48 | 0.4 to 2.4 (≈ 0.881 to 5.29 µM) | COc1cc(Nc2ncnc(Nc3cc(-c4cccc(Cl)c4)n[nH]3)n2)cc(OC)c1OC
49 | 0.4 to 2.4 (≈ 1.07 to 6.41 µM) | Cc1ccc2c(c1)CCCN2c1ncnc(Nc2ccc3ncsc3c2)n1
50 | 0.4 to 2.4 (≈ 1.01 to 6.04 µM) | COc1cc(Nc2ncnc(Nc3ccc(C(=O)O)cc3)n2)cc(OC)c1OC
51 | > 4.5 | O=c1[nH]c2ccccc2n1-c1ncnc(Nc2ccccc2)n1
52 | 2.4 to 3.5 (≈ 6.12 to 8.92 µM) | COc1cc(Nc2ncnc(-n3c(C)nc4ccccc43)n2)cc(OC)c1OC
53 | 0.4 to 2.4 (≈ 0.991 to 5.94 µM) | COc1cc(Nc2ncnc(Nc3ccc(O)cc3Cl)n2)cc(OC)c1OC
